The test system of assay [1] is type II myosin. Particulars: enantiomer of blebbistatin; cited from earlier work.
In assay [2] the test system is myosin light chain (MLC) phosphorylation. Kind of assay: Western blot of Rho-ROCK pathway activity (phospho myosin light chain). Format: cell-based, cynomolgus monkey. Here is the method:
DMEM (Gibco-Invitrogen) to which Y-27632 was added such that the final concentration would be 10 μM and cultured monkey corneal endothelial cells were seeded. Over time, i.e., 0, 1, 3, and 24 hours thereafter, proteins extracted with RIPA buffer were subjected to electrophoresis with 7.5% polyacrylamide. DMEM (Gibco-Invitrogen) was used as a control. The separated protein was transcribed onto a PVDF membrane (PALL LIFE SCIENCE, catalog number: EH-2222). Blocking procedure was carried out by incubating a Tris buffered saline (10 mM Tris-HCl, pH 7.4, 100 mM NaCl) supplemented with 0.1% (vol/vol) polyethylene sorbitan monolaurate (Nacalai Tesque, catalog number: 28353-85) (TBS-T) and 5% non-fat dry milk (CELL SIGNALING, catalog number: 9999) and the blotted membrane for one hour. The membrane was then immersed in TBS-T supplemented with antibodies against Phospho Myosin Light Chain 2 (Thr18/Ser19) (CELL SIGNALING, catalog number: 3674), Phospho FAK (Y397) (D20B1) Rabbit mAb (CELL SIGNALING, catalog number: 8556), Phospho Paxillin (Tyr118) Antibody (CELL SIGNALING, catalog number: 2541), GAPDH (14C10) Rabbit mAb (CELL SIGNALING, catalog number: 2118) and diluted 1000-fold, and reacted for 1 hour at room temperature. […]
In general terms: A western blot detects proteins with antibodies after separation by electrophoresis.

The subject of assay [3] is rabbit bullous keratopathy model. Kind of assay: Transplantation of cultured corneal endothelial cells in combination with inhibitor, injected into the anterior chamber. Particulars: for state of the anterior ocular section after transplantation (pictures): day 3, day 7, day 14. Format: in vivo. Here is the method: In primary culture of rabbit corneal endothelial cells, a Descemet's membrane including an endothelial cell layer was detached from a corneal tissue and 0.5 ml of Accutase (catalog number: AT104, Innovative Cell Technologies) was used for each eye, and incubated at 37° C. by using a water bath. After 20 minutes, a culture medium was added and pipetting was performed. The sample was centrifuged at 1200 rpm for 3 minutes to remove the supernatant. A culture medium was then added to a precipitated corneal endothelial cell mass for admixing. The entire amount was seeded on a 12-well plate coated with FNC Coating Mix (catalog No.: 0407; Athena Enzyme Systems, Baltimore, Md., USA). DMEM (catalog No.: 12320; Gibco-Invitrogen), to which 10% FBS, 1% Penicillin-Streptomycin Mixed Solution (catalog number: 26252-94; Nacalai Tesque), and 2 ng/ml basic fibroblast growth factor, catalog number: 13256-029; bFGF; Invitrogen) were added, was used as a culture medium.
A medium was exchanged every other day. Subculture was performed when 50 to 80% confluence was reached. With respect to the subculturing method, cells were washed with Ca^2+Mg^2+-free PBS (PBS−; Nissui Pharmaceutical Co., Ltd., Tokyo, Japan), and 0.05% Trypsin-EDTA (catalog No.: 25300-054; Invitrogen) was added and incubated at 37° C. for 3 minutes. Cells were detached and collected from the plate. After the cells were centrifuged at 1500 rpm for 3 minutes, a culture medium was added to make a cell suspension. Cells were seeded on a plate coated with FNC Coating Mix at a density of 1:2-3.
Rabbit corneal endothelial cells were detached with a soft tapered needle (Inami, M-563S) to make a bullous keratopathy model. Subsequently, 5.0×10^5 cultured rabbit corneal endothelial cells were suspended in 200 μl of Dulbecco's Modified Eagle Medium (DMEM) with blebbistatin adjusted to a final concentration of 10 μM. The suspension was injected into the anterior chamber and the corneal surface was maintained in a face-down position for three hours. A group injected with 5.0×10^5 rabbit corneal endothelial cells suspended into 200 μl of Dulbecco's Modified Eagle Medium (DMEM) with Y-27632 adjusted to a final concentration of 100 μM in the anterior chamber, a group subjected only to scraping off of corneal endothelial cells, and a group injected with 5.0×10^5 rabbit corneal endothelial cells suspended in a 200 μl of Dulbecco's Modified Eagle Medium (DMEM) into the anterior chamber were used as comparison groups.
A rabbit bullous keratopathy model eye with the corneal endothelium scraped off was injected with 5.0×10^5 cultured rabbit corneal endothelial cells suspended in 200 μl of Dulbecco's Modified Eagle Medium (DMEM) with blebbistatin adjusted to a final concentration of 1 μM and 3 μM into the anterior chamber as in Example 3. […]

Assay [4] relates to paxillin phosphorylation. Kind of assay: Western blot of adhesion-related molecules (phospho paxillin). The format is cell-based, cynomolgus monkey.
The test system of assay [5] is cultured monkey corneal endothelial cells. The assay is described as follows: Examination of number of adhering cells with CellTiter-Glo. Format: cell-based, cynomolgus monkey. In general terms: Cellular ATP, detected with luciferase, serves as a proxy for viable cell number.
The test system of assay [6] is focal adhesion kinase (FAK) phosphorylation. The format is cell-based, cynomolgus monkey.
Assay [7] has as its system skeletal muscle myosin II. Particulars: cited from earlier work.
The subject of assay [8] is actin polymerization. Particulars: cited from earlier work.
The subject of assay [9] is non-muscle myosin II. Particulars: cited from earlier work.

Where a name gives a salt, the structure may show the parent alone. Read-outs that look alike come from different tables or passages of the source.

These results are taken from patent US10959997B2, “Combined agent for cell therapy of corneal endothelial cell” (KYOTO PREFECTURAL PUBLIC UNIVERSITY CORPORATION, priority 2013, dated 2021).

As to `Cc1ccc2c(c1)C(=O)C1(O)CCN(c3ccccc3)C1=N2` (single isomer, unassigned; (+)) [(+) form], in assay [1], the “effect as myosin II-specific inhibitor” value is listed as “does not”.
Turning to `C[C@@H](N)[C@H]1CC[C@H](C(=O)Nc2ccncc2)CC1` [Y-27632, (R)-(+)-trans-(4-pyridyl)-4-(1-aminoethyl)-dihydrochloride cyclohexanecarboxamide monohydrate], in assay [2] (Y-27632 10 μM, 0, 1, 3 and 24 hours), the MLC phosphorylation result was “suppresses”. Moreover, in [3] (Y-27632 100 μM with 5.0×10^5 cells in 200 μl DMEM), the “state of the anterior ocular section after transplantation (pictures)” value is listed as “excellent”. In addition, the “concentration at which efficacy is exhibited” value in [3] (animal models with bullous keratopathy) fell in the range of 10 to 100 µM. The phosphorylation of paxillin entry in assay [4] was “phosphorylated at an early stage”. The “number of adhering cells” value in [5] is listed as “significantly increased”. Further, the “phosphorylation of FAK” value in [6] is on record as “phosphorylated at an early stage”.
For the compound `CC(=O)C(C)=NO` [BDM, 2,3-butanedione monoxime], in assay [7], the “action on skeletal muscle myosin II” value is “has action on skeletal muscle myosin II”. Besides, the “effect on actin polymerization” value in assay [8] is given as “inhibiting actin polymerization”. Besides, the “inhibiting effect on non-muscle myosin II” value in [9] is “does not have an inhibiting effect”.
For the compound `Cc1ccc2c(c1)C(=O)[C@]1(O)CCN(c3ccccc3)C1=N2` [blebbistatin, (S)-(−)-Blebbistatin], in [2] (addition of blebbistatin, stated in the discussion), the MLC phosphorylation activity result is listed as “suppression of the MLC phosphorylation activity”. Also, the “concentration needed for therapy compared with Y-27632” value in assay [3] (blebbistatin 1 μM, 3 μM, 10 μM versus Y-27632 100 μM) is given as “therapy was possible at a lower concentration relative to Y-27632”. Further, the “state of the anterior ocular section after transplantation (pictures)” value in [3] (blebbistatin 10 μM with 5.0×10^5 cells in 200 μl DMEM) is “excellent as with Y-27632”. Moreover, the “effect as myosin II-specific inhibitor” value in assay [1] was “has an effect”. The phosphorylation of paxillin entry in [4] (blebbistatin 100 μM, 0, 1, 3 and 24 hours) is “phosphorylated at an early stage”. For the same compound, in assay [5] (blebbistatin 100 μM, three hours from seeding, in comparison to the control (DMEM)), the “number of adhering cells” value was “significantly increased”.
